Values quoted from earlier work in US7049092B1 (priority 1999, dated 2006).

Molecular target: hormone-sensitive lipase
Conditions: read-out: IC50 (concentration producing 50% inhibition)

For `[Cl][Hg][Cl]` [HgCl2 (mercuric chloride), mercuric chloride], which IC50 is on record?
The IC50 was 11 µM.
